Test system: MazF-mt3(Δ16–22)
Format: biochemical, Mycobacterium tuberculosis
Settings: FAM-labeled 13-nt RNA substrate; Figure 4B, Figure S9

“MazE-mt3 α3–α4: peptide corresponding to the last two helices (α3-α4, Leu46-Trp82) of MazE-mt3; cocrystallized with MazF-mt3 (PDB 8ZWS) (LTGQIDRALESIHGTDEAEALAVANAYRVLETMDDEW)” was tested, and the “inhibitory effect against the loop-truncated MazF-mt3 enzyme compared with the full-length antitoxin” value was “strong inhibitory effect comparable to that of the full-length MazE-mt3”.
